{
  "source": "patent US20240293322A1",
  "about": "“SUSTAINED RELEASE FORMULATIONS COMPRISING A SELECTIVE ANDROGEN RECEPTOR MODULATOR” (University of Iowa Research Foundation, priority 2021, published 2024)",
  "key": {"[1]": {"system": "acidic saline muscle pain model", "assay": "Acidic saline muscle pain (fibromyalgia) model, muscle withdrawal threshold (MWT)", "type": "in vivo, C57BL/6J mice", "protocol": "A SARM was tested its ability to alleviate pain using a model of fibromyalgia (Sluka et al., 2001). The model is induced by repeated injections of acidic saline into the gastrocnemius muscle, 5 days apart. After the second injection animals develop widespread pain behavior, termed hyperalgesia, that resolves in 4 weeks. Pain-behaviors are tested by using a device to apply deep pressure to the gastrocnemius muscle; withdrawal from this pressure is considered a pain-response.\nPain was induced using the model after which daily administration of SARMs or a vehicle was performed for 4 weeks. Withdrawal thresholds of the muscle were tested before and after induction of the model, and weekly after administration of the SARM. A decrease in withdrawal threshold is interpreted as increased pain sensitivity or hyperalgesia. […] Daily administration is clinically cumbersome and results in lower adherence to the treatment and so a long acting SARM containing microparticle formulation was developed to treat pain, e.g., chronic pain.\n(§1) A decrease in MWT was interpreted as muscle hyperalgesia.\nThe SARM, (s)-3-(4-cyanophenoxy)-n-(4-cyano-3-(trifluoromethyl)phenyl)-2-hydroxy-2-methylpropanamide (Achemblock, San Francisco, CA, USA), was used in the following experiments. To test for the analgesic effects of SARM the acidic saline muscle pain model was induced and the presence of hyperalgesia 24 hours after model induction was confirmed. Animals then received daily subcutaneous injections of either SARM or vehicle for the next 4 weeks. For SARM administration, the drug was dissolved in dimethyl sulfoxide (DMSO; Fisher Scientific, Waltham, MA, USA) at a concentration of 50 mg/ml and then diluted in polyethylene glycol 300 (PEG300; Med Lab Supply, Pompano Beach, FL, USA) until a final solution of 10 mg/ml in 80:20 PEG300:DMSO was achieved. Animals were anesthetized with 2-4% isoflurane and SARM (25 mg/kg) or vehicle were delivered subcutaneously. This dose was chosen based on prior literature which found greatest effect at this dose (Gao et al., 2004). […]"}, "[2]": {"system": "acidic saline muscle pain model", "assay": "Acidic saline muscle pain model, paw allodynia by von Frey monofilament", "type": "in vivo, C57BL/6J mice", "conditions": "daily SARM 25 mg/kg s.c. for 4 weeks vs vehicle; ipsilateral and contralateral paw", "text": "as §1"}, "C57BL/6J mice": {"system": "C57BL/6J mice", "assay": "Rewarding behavior, condition place preference testing", "type": "in vivo", "conditions": "SARM 25 mg/kg s.c. daily for 5 days", "text": "To test if SARM produced rewarding behavior condition place preference testing was employed using a 9-day testing paradigm. The boxes used for testing were 27.5″ by 8.25″ divided into two 10.75″ by 8.25″ pairing chambers and a 4.75″ by 8.25″ middle chamber. The pairing chambers had different colored walls (solid black vs black and white stripe) and floor textures (smooth vs ridged). The middle chamber had solid black walls with smooth floors and was illuminated. Acclimation and baseline testing occurred over the first 3 days. Animals were placed in boxes with access to all 3 chambers for 15 minutes. On the third day, time spent in each box was recorded. Drug pairing then occurred for 5 days on days 4 through 8. Each day, animals were injected subcutaneously with SARM vehicle (80:20; PEG300:DMSO) and placed in a pairing chamber for 60 minutes. Animals were then returned to their home cages. Four hours later animals were subcutaneously injected with SARM (25 mg/kg) and were confined to the opposite pairing chamber for 60 minutes. Chamber pairings were counterbalanced amongst animals. Following pairing, on day 9, animals were placed in boxes with access to all 3 chambers for 15 minutes with time spent in each box recorded. In order to determine if rewarding behavior was present, the amount of time spent in SARM paired chambers was compared between baseline and post drug pairing."}},
  "note": "“Also recorded” adds a separate entry of the source.",
  "data": [
    {"smiles": "C[C@](O)(COc1ccc(C#N)cc1)C(=O)Nc1ccc(C#N)c(C(F)(F)F)c1", "note": "[SARM, (s)-3-(4-cyanophenoxy)-n-(4-cyano-3-(trifluoromethyl)phenyl)-2-hydroxy-2-methylpropanamide]", "values": [
      {"measurement": "effect on hyperalgesia in male versus female mice", "setting": "[1]; Example 1", "value": "worked equally in male and female mice"},
      {"measurement": "withdrawal thresholds of the gastrocnemius muscle (pain thresholds, muscle hyperalgesia)", "setting": "[1]; Example 1: daily administration of free SARM for 4 weeks vs vehicle, left and right muscle", "value": "higher pain thresholds than those receiving vehicle treatment; also recorded: reversed muscle hyperalgesia"},
      {"measurement": "muscle hyperalgesia measured via muscle withdrawal threshold (MWT)", "setting": "[1]; daily SARM 25 mg/kg s.c. for 4 weeks vs vehicle, ipsilateral and contralateral limb", "value": "alleviated decreased MWT bilaterally in both sexes; also recorded: significant reversal in muscle hyperalgesia; also recorded: reversed muscle hyperalgesia"},
      {"measurement": "paw allodynia / paw hypersensitivity (von Frey number of responses)", "setting": "[2]", "value": "no effect on paw allodynia; also recorded: unable to alleviate paw hypersensitivity"},
      {"measurement": "preference for SARM paired chamber (reward like behavior)", "setting": "C57BL/6J mice; baseline vs post drug pairing", "value": "did not show an increased preference for the SARM paired chamber; also recorded: no preference for the SARM paired chamber"},
      {"measurement": "time spent in SARM paired chamber, post drug pairing", "setting": "C57BL/6J mice; baseline 380.3±51.0 sec, mean±SEM", "value": "385.7 ± 37.1", "unit": "s"}
    ]}
  ]
}
